Data on two compounds can be found in patent publication US10464890B2, “PGAM1 inhibitors and methods related thereto” (Emory University, priority 2011, dated 2019).

Data set [1] in a line: Toxicity studies in nude mice. It is filed as in vivo. How it is done:
Peripheral blood samples were collected and applied for analysis of hematological properties. The vital organs were collected for histo-pathological analysis. […] Images were analyzed and captured using ImageScope software (Aperio Technologies Inc.) without any additional or subsequent image processing (high power images are 20×; low power images are either 4.0×, 4.2×, or 4.4×). Scale bars are indicated.
An in vivo drug treatment experiment was performed. […] Xenograft experiments were performed by injecting H1299 cells to nude mice.

The test system of data set [2] is H1299 cells with stable knockdown of PGAM1. The data set can be described thus: 14C-serine synthesis assay. In kind it is cell-based, human. As to conditions: methyl-2-PG. How it is done: Serine synthesis flux from ^14C glucose was measured as described previously (Parry, 1957) with modification. Sub-confluent cells seeded on a 6 cm dish were incubated in complete medium spiked with 40 μCi/ml of D-[U-^14C]-glucose overnight. The incubated cells were lysed with hypotonic lysis buffer (20 mM HEPES (pH 7.0), 5 mM KCl, 1 mM MgCl2, 5 mM DTT, and protease inhibitor cocktail), and the cell lysates were spun down by centrifugation to remove cell debris. The supernatant containing 100 μg of total protein was spotted onto Whatman 3MM paper. One-dimensional chromatogram was run in water saturated phenol, and two-dimentional chromatogram was run in 1-butanol:acetic acid:water solution at the ratio of 100:22:50. L-serine (Sigma) was used as a standard. L-serine dissolved in hypotonic lysis buffer was spotted onto another paper, which was run under the same conditions in parallel with the cell lysate sample. Spots of amino acids were developed by ninhydrin reaction. The spot corresponding to serine was identified based on R^f values of L-serine standard, cut out from the paper, and directly subjected to scintillation counting.

“Also recorded” adds a separate entry of the source.

Take `O=C1c2ccccc2C(=O)c2c1cc(S(=O)(=O)Nc1ccc(C(F)(F)F)cc1)c(O)c2O` [PGMI-004A, N-(4-trifluoromethyl)-penyl-3,4-dihydroxy-9,10-dioxo-2-anthracenesulfonamide]: the “body weight, complete blood counts (CBC) or hematopoietic properties” value in data set [1] (100 mg/kg/day for 7 days) was “did not result in significant alteration”. The “histopathological analyses (kidney, lung, liver, spleen)” value in data set [1] (100 mg/kg/day intraperitoneally for 7 days, vs vehicle) was “did not reveal significant differences; also recorded: no notable differences”. Further, in data set [1] (100 mg/kg/day intraperitoneally, chronic injection for 4 weeks), the tolerability result is on record as “well-tolerated”.

Regarding `COC(=O)[C@@H](CO)OP(=O)(O)O` [methyl-2-PG, methyl ester of D(+)-2-phosphoglyceric acid, reference compound], the serine biosynthesis entry in data set [2] is “rescues the phenotype”.
